Assays:
[1] = system: ABUTH (Velvetleaf); test: Postemergence herbicidal evaluation; type: in vivo, Abutilon theophrasti
Outline: (§1)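 ~2-wk seedlings; postemergence spray, 40 psi; vehicle 1:1 acetone:water + 0.5% Tween 20; rate ≈0.0156–0.500 kg/ha; greenhouse hold; scored 4–5 wk after treatment, 0–9 scale vs control; repeat tests averaged.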

[2] = system: IPOHE (Morningglory, Ivyleaf); test: Postemergence herbicidal evaluation; type: in vivo, Ipomoea hederacea
Outline: as §1

[3] = system: SETVI (Foxtail, Green); test: Postemergence herbicidal evaluation; type: in vivo, Setaria viridis
Outline: as §1

[4] = system: GLXMAW (Soybean, Williams); test: Postemergence herbicidal evaluation; type: in vivo, Glycine max, (L.) Merr. cv Williams
Outline: as §1

[5] = system: ZEAMX (Corn, Field); test: Postemergence herbicidal evaluation; type: in vivo, Zea mays
Outline: as §1

[6] = system: ABUTH (Velvetleaf); test: Preemergence herbicidal evaluation; type: in vivo, Abutilon theophrasti; conditions: rated 4-5 weeks after treatment
Outline: (§2)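 Rating at 4–5 wk post-spray on a 0–9 visual scale vs control. Application: aqueous acetone, ~0.0156–0.500 kg/ha, to soil surface after seeding, preemergence.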

[7] = system: AMBEL (Ragweed, Common); test: Preemergence herbicidal evaluation; type: in vivo, Ambrosia artemisifolia; conditions: rated 4-5 weeks after treatment
Outline: as §2

[8] = system: CASOB (Sicklepod); test: Preemergence herbicidal evaluation; type: in vivo, Cassia obtusifolia; conditions: rated 4-5 weeks after treatment
Outline: as §2

[9] = system: IPOHE (Morningglory, Ivyleaf); test: Preemergence herbicidal evaluation; type: in vivo, Ipomoea hederacea; conditions: rated 4-5 weeks after treatment
Outline: as §2

[10] = system: ECHCG (Barnyardgrass); test: Preemergence herbicidal evaluation; type: in vivo, Echinochloa crus-galli; conditions: rated 4-5 weeks after treatment
Outline: as §2

[11] = system: ECHORC (Watergrass (Calif.)); test: Preemergence weed control under flooded paddy conditions; type: in vivo, Echinochloa oryzoides; conditions: rated 3-4 weeks after treatment
Outline: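 Seeds or propagules sown in top 0.5 cm of silt loam soil, flooded 1.5 to 3 cm above surface throughout. Compound in 50/50 v/v aqueous/acetone pipetted into flood water at about 0.0313 to 0.500 kg/ha. Visual 0-9 rating versus control after three to four weeks in greenhouse.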

[12] = system: CYPSE (Flatsedge); test: as above; type: in vivo, Cyperus serotinus; conditions: rated 3-4 weeks after treatment
Outline: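 Silt loam, seeds in top 0.5 cm; flood held 1.5-3 cm; test cpd as acetone/water 50/50 into flood water, ~0.0313-0.500 kg/ha a.i.; greenhouse 3-4 wk; visual 0-9 score vs control.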

[13] = system: ECHORC (Watergrass (Calif.)); test: Postemergence weed control under flooded paddy conditions; type: in vivo, Echinochloa oryzoides; conditions: postemergence weeds
Outline: (§3)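 Weeds 3 to 5 cm tall and rice seedlings at the 1.5 to 2.5 leaf stage were flooded, with water held 1.5 to 3 cm above the soil. Compounds in 50/50 v/v aqueous/acetone went into the flood water at about 0.0313 to 0.500 kg/ha. Visual 0-9 ratings versus control were made 3 to 4 weeks later.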

[14] = system: CYPIR (Rice Flatsedge); test: as above; type: in vivo, Cyperus iria; conditions: postemergence weeds
Outline: as §3

[15] = rate 0.0313 kg/ha, 3-4 weeks after treatment
[16] = rate 0.0625 kg/ha, 3-4 weeks after treatment
[17] = rate 0.1250 kg/ha, 3-4 weeks after treatment
[18] = rate 0.2500 kg/ha, 3-4 weeks after treatment
[19] = Rate 0.0313 kg/ha, rated 3 to 4 weeks after treatment
[20] = Rate 0.0625 kg/ha, rated 3 to 4 weeks after treatment
[21] = Rate 0.1250 kg/ha, rated 3 to 4 weeks after treatment
[22] = Rate 0.2500 kg/ha, rated 3 to 4 weeks after treatment

SMILES: COC(=O)CCN1C(=O)CSC1=Nc1cc(-n2c(=O)cc(C(F)(F)F)n(C)c2=O)c(F)cc1Cl [Compound 28, Methyl 2-{{2-chloro-5-[3,6-dihydro-3-methyl-2,6-dioxo-4-(trifluoromethyl)-1(2H)-pyrimidinyl]-4-fluorophenyl}imino}-4-oxo-3-thiazolidinepropionate]
- Postemergence herbicidal rating ABUTH ([1]; Rate 0.0158 kg/ha): 9.0
- Postemergence herbicidal rating ABUTH ([1]; Rate 0.0315 kg/ha): 9.0
- Postemergence herbicidal rating ABUTH ([1]; Rate 0.0630 kg/ha): 9.0
- Postemergence herbicidal rating IPOHE ([2]; Rate 0.0158 kg/ha): 9.0
- Postemergence herbicidal rating IPOHE ([2]; Rate 0.0315 kg/ha): 9.0
- Postemergence herbicidal rating IPOHE ([2]; Rate 0.0630 kg/ha): 9.0
- Postemergence herbicidal rating SETVI ([3]; Rate 0.0158 kg/ha): 0.0
- Postemergence herbicidal rating SETVI ([3]; Rate 0.0315 kg/ha): 9.0
- Postemergence herbicidal rating SETVI ([3]; Rate 0.0630 kg/ha): 9.0
- Postemergence herbicidal rating GLXMAW ([4]; Rate 0.0158 kg/ha): 6.5
- Postemergence herbicidal rating GLXMAW ([4]; Rate 0.0315 kg/ha): 8.0
- Postemergence herbicidal rating GLXMAW ([4]; Rate 0.0630 kg/ha): 8.5
- Postemergence herbicidal rating ZEAMX ([5]; Rate 0.0158 kg/ha): 7.5
- Postemergence herbicidal rating ZEAMX ([5]; Rate 0.0315 kg/ha): 7.5
- Postemergence herbicidal rating ZEAMX ([5]; Rate 0.0630 kg/ha): 9.0
- Preemergence herbicidal rating ABUTH ([6]; rate 0.1250 kg/ha): 3.0
- Preemergence herbicidal rating ABUTH ([6]; rate 0.2500 kg/ha): 9.0
- Preemergence herbicidal rating AMBEL ([7]; rate 0.0625 kg/ha): 0.0
- Preemergence herbicidal rating AMBEL ([7]; rate 0.1250 kg/ha): 0.0
- Preemergence herbicidal rating AMBEL ([7]; rate 0.2500 kg/ha): 7.0
- Preemergence herbicidal rating CASOB ([8]; rate 0.0625 kg/ha): 0.0
- Preemergence herbicidal rating CASOB ([8]; rate 0.1250 kg/ha): 0.0
- Preemergence herbicidal rating CASOB ([8]; rate 0.2500 kg/ha): 0.0
- Preemergence herbicidal rating IPOHE ([9]; rate 0.0625 kg/ha): 0.0
- Preemergence herbicidal rating IPOHE ([9]; rate 0.1250 kg/ha): 2.0
- Preemergence herbicidal rating IPOHE ([9]; rate 0.2500 kg/ha): 9.0
- Preemergence herbicidal rating ECHCG ([10]; rate 0.0625 kg/ha): 0.0
- Preemergence herbicidal rating ECHCG ([10]; rate 0.1250 kg/ha): 9.0
- Preemergence herbicidal rating ECHCG ([10]; rate 0.2500 kg/ha): 9.0
- Herbicidal rating ECHORC ([11]; 0.0313 kg/ha): 0.0
- Herbicidal rating ECHORC ([11]; 0.0625 kg/ha): 4.0
- Herbicidal rating ECHORC ([11]; 0.1250 kg/ha): 7.0
- Herbicidal rating ECHORC ([11]; 0.2500 kg/ha): 9.0
- Herbicidal rating CYPSE ([12]; 0.0313 kg/ha): 0.0
- Herbicidal rating CYPSE ([12]; 0.0625 kg/ha): 0.0
- Herbicidal rating CYPSE ([12]; 0.1250 kg/ha): 0.0
- Herbicidal rating CYPSE ([12]; 0.2500 kg/ha): 0.0
- Herbicidal rating ECHORC [13, 15]: 0.0
- Herbicidal rating ECHORC [13, 16]: 4.0
- Herbicidal rating ECHORC [13, 17]: 7.0
- Herbicidal rating ECHORC [13, 18]: 9.0
- Herbicidal rating CYPIR [14, 15]: 9.0
- Herbicidal rating CYPIR [14, 16]: 9.0
- Herbicidal rating CYPIR [14, 17]: 9.0
- Herbicidal rating CYPIR [14, 18]: 9.0

SMILES: C=CCN1C(=O)C(CC(=O)O)SC1=Nc1cc(-n2c(=O)cc(C(F)(F)F)n(C)c2=O)c(F)cc1Cl (centres unmarked) [Compound 62, 3-Allyl-2-{{2-chloro-5-[3,6-dihydro-3-methyl-2,6-dioxo-4-(trifluoromethyl)-1(2H)-pyrimidinyl]-4-fluorophenyl}imino}-4-oxo-5-thiazolidineacetic acid]
- Postemergence herbicidal rating ABUTH ([1]; Rate 0.0158 kg/ha): 9.0
- Postemergence herbicidal rating ABUTH ([1]; Rate 0.0315 kg/ha): 9.0
- Postemergence herbicidal rating ABUTH ([1]; Rate 0.0630 kg/ha): 9.0
- Postemergence herbicidal rating IPOHE ([2]; Rate 0.0158 kg/ha): 9.0
- Postemergence herbicidal rating IPOHE ([2]; Rate 0.0315 kg/ha): 9.0
- Postemergence herbicidal rating IPOHE ([2]; Rate 0.0630 kg/ha): 9.0
- Postemergence herbicidal rating SETVI ([3]; Rate 0.0158 kg/ha): 9.0
- Postemergence herbicidal rating SETVI ([3]; Rate 0.0315 kg/ha): 9.0
- Postemergence herbicidal rating SETVI ([3]; Rate 0.0630 kg/ha): 8.0
- Postemergence herbicidal rating GLXMAW ([4]; Rate 0.0158 kg/ha): 7.5
- Postemergence herbicidal rating GLXMAW ([4]; Rate 0.0315 kg/ha): 7.5
- Postemergence herbicidal rating GLXMAW ([4]; Rate 0.0630 kg/ha): 8.5
- Postemergence herbicidal rating ZEAMX ([5]; Rate 0.0158 kg/ha): 7.5
- Postemergence herbicidal rating ZEAMX ([5]; Rate 0.0315 kg/ha): 8.0
- Postemergence herbicidal rating ZEAMX ([5]; Rate 0.0630 kg/ha): 8.0
- Preemergence herbicidal rating ABUTH ([6]; rate 0.0156 kg/ha): 4.0
- Preemergence herbicidal rating ABUTH ([6]; rate 0.0313 kg/ha): 7.0
- Preemergence herbicidal rating ABUTH ([6]; rate 0.0625 kg/ha): 9.0
- Preemergence herbicidal rating ABUTH ([6]; rate 0.1250 kg/ha): 9.0
- Preemergence herbicidal rating ABUTH ([6]; rate 0.2500 kg/ha): 9.0
- Preemergence herbicidal rating AMBEL ([7]; rate 0.0156 kg/ha): 2.0
- Preemergence herbicidal rating AMBEL ([7]; rate 0.0313 kg/ha): 5.0
- Preemergence herbicidal rating AMBEL ([7]; rate 0.0625 kg/ha): 7.0
- Preemergence herbicidal rating AMBEL ([7]; rate 0.1250 kg/ha): 9.0
- Preemergence herbicidal rating AMBEL ([7]; rate 0.2500 kg/ha): 7.0
- Preemergence herbicidal rating CASOB ([8]; rate 0.0156 kg/ha): 0.0
- Preemergence herbicidal rating CASOB ([8]; rate 0.0313 kg/ha): 0.0
- Preemergence herbicidal rating CASOB ([8]; rate 0.0625 kg/ha): 1.0
- Preemergence herbicidal rating CASOB ([8]; rate 0.1250 kg/ha): 1.0
- Preemergence herbicidal rating CASOB ([8]; rate 0.2500 kg/ha): 1.0
- Preemergence herbicidal rating IPOHE ([9]; rate 0.0156 kg/ha): 0.0
- Preemergence herbicidal rating IPOHE ([9]; rate 0.0313 kg/ha): 3.0
- Preemergence herbicidal rating IPOHE ([9]; rate 0.0625 kg/ha): 5.0
- Preemergence herbicidal rating IPOHE ([9]; rate 0.1250 kg/ha): 7.0
- Preemergence herbicidal rating IPOHE ([9]; rate 0.2500 kg/ha): 9.0
- Preemergence herbicidal rating ECHCG ([10]; rate 0.0156 kg/ha): 0.0
- Preemergence herbicidal rating ECHCG ([10]; rate 0.0313 kg/ha): 0.0
- Preemergence herbicidal rating ECHCG ([10]; rate 0.0625 kg/ha): 1.0
- Preemergence herbicidal rating ECHCG ([10]; rate 0.1250 kg/ha): 3.0
- Preemergence herbicidal rating ECHCG ([10]; rate 0.2500 kg/ha): 7.0
- ECHORC herbicidal effect rating ([11]; 0.0313 kg/ha): 0.0
- ECHORC herbicidal effect rating ([11]; 0.0625 kg/ha): 0.0
- ECHORC herbicidal effect rating ([11]; 0.1250 kg/ha): 2.0
- ECHORC herbicidal effect rating ([11]; 0.2500 kg/ha): 5.0
- CYPSE herbicidal effect rating ([12]; 0.0313 kg/ha): 0.0
- CYPSE herbicidal effect rating ([12]; 0.0625 kg/ha): 0.0
- CYPSE herbicidal effect rating ([12]; 0.1250 kg/ha): 0.0
- CYPSE herbicidal effect rating ([12]; 0.2500 kg/ha): 0.0
- Herbicidal rating ECHORC [13, 19]: 0.0
- Herbicidal rating ECHORC [13, 20]: 0.0
- Herbicidal rating ECHORC [13, 21]: 2.0
- Herbicidal rating ECHORC [13, 22]: 5.0
- Herbicidal rating CYPIR [14, 19]: 0.0
- Herbicidal rating CYPIR [14, 20]: 2.0
- Herbicidal rating CYPIR [14, 21]: 9.0
- Herbicidal rating CYPIR [14, 22]: 9.0
